Measured values published in article PMC7023435 (Pharmaceutics, 2020).

How the values were obtained:
[1] = in vivo; cited from earlier work
Description: For overcoming the absorption barrier, PEs have been developed and studied both for paracellular enhancement by tight junction opening and transcellular e ...

[2] = system: porcine intestinal tissue; assay: Ex vivo intestinal permeation study in Franz diffusion cells; type: in vitro ADME, pig; conditions: Franz diffusion cell, hDMEM, 37 °C, 3 h, MC chip on mucosa, insulin by ELISA, n = 3
Description: The jejunum and ileum were collected from an anaesthetized pig (approx. 40 kg) immediately before it was euthanized. […] Intestinal segments of 10–20 cm were prepared and stored at −20 °C until the day of the permeation study. Prior to the study, a segment was thawed in 10 mM HEPES-buffered DMEM (hDMEM) and longitudinally cut open. Luminal contents were washed away with hDMEM and the muscularis was removed using tweezers before the mucosa was cut into 4 × 4 cm pieces and placed in Franz diffusion cells. Each receptor compartment was filled with 7 mL of hDMEM facing the serosal side of the intestinal tissue. The donor side, facing the mucosa, was filled with 1.5 mL FD70 solution (100 µg/mL) in hDMEM to imitate the inclusion of a pathogen. Permeation was initiated by placing a chip of loaded MCs directly on top with the openings facing the mucosa.

[3] = system: epithelial integrity; conditions: cited from earlier work
Description: The effect of local high PE concentrations on the monolayer under the opening of C10-releasing MCs has previously been visualized by laser-scanning confocal microscopy of cell monolayers cultured on Transwell® filters. Furthermore, we have previously shown that the monolayers, u ...

[4] = system: Caco-2 cell monolayers; assay: In vitro insulin permeation and TEER across Caco-2 cell monolayers, PE:insulin in microcontainers or solution; type: in vitro ADME; conditions: Caco-2, apical to basolateral, 2 h, 37 °C, 75 rpm, hHBSS pH 7.4 with 0.05% BSA, PE:insulin 1:4 w/w, RP-HPLC UV 214 nm, n = 3 passages in triplicate
Description: Cell culturing was done in DMEM supplemented with FBS (10%, v/v), L-glutamine (2 mM), penicillin (100 U/mL), streptomycin (100 µg/mL) and NEAA (1%, v/v) for 21–23 days at 37 °C and 5% CO2 with a final density of 1 × 10^5 cells/cm^2. […] The transepithelial electrical resistance (TEER) of the Caco-2 cell monolayers was measured upon equilibration to room temperature using an Epithelial Volt/Ohm Meter (World Precision Instruments, Sarasota, FL, USA) with Endohm™ chambers. First recording took place in culture medium prior to the permeation study; after which, the monolayers were washed twice with permeation buffer consisting of 10 mM HEPES in HBSS (hHBSS) supplied with BSA (0.05%, w/v), NaHCO3 (0.38%, w/v) and adjusted to pH 7.4. […] Each of the three different studies per PE was carried out in triplicates and across three passages with all studies conducted within eight passages. […] The MC chips were then removed from the Caco-2 cell monolayers, followed by washing twice with hHBSS before TEER was recorded again.
In vitro permeation samples without proteolysis were separated on a Kinetex XB-C18 column (100 × 4.6 mm, 5 µm, 100 Å; Phenomenex, Torrance, CA, USA), with two mobile phases of A: 0.1% (v/v) TFA in water and B: 0.1% (v/v) TFA in acetonitrile. […]

[5] = system: Caco-2 cell monolayers with apical α-chymotrypsin; assay: Combined in vitro permeation and proteolysis; conditions: absence of protease inhibition (insulin:SDS:MCC MCs), apical α-chymotrypsin 0.49 U/mL, 37 °C, RP-HPLC
Description: Cell culturing was done in DMEM supplemented with FBS (10%, v/v), L-glutamine (2 mM), penicillin (100 U/mL), streptomycin (100 µg/mL) and NEAA (1%, v/v) for 21–23 days at 37 °C and 5% CO2 with a final density of 1 × 10^5 cells/cm^2. […] The transepithelial electrical resistance (TEER) of the Caco-2 cell monolayers was measured upon equilibration to room temperature using an Epithelial Volt/Ohm Meter (World Precision Instruments, Sarasota, FL, USA) with Endohm™ chambers. […] The MC chips were then removed from the Caco-2 cell monolayers, followed by washing twice with hHBSS before TEER was recorded again.
The compatibility of integrating proteolysis in the in vitro permeation setup was then tested by measuring TEER and viability as the metabolic activity of Caco-2 cell monolayers after 2 h of apical exposure to different concentrations of α-chymotrypsin (0, 10, 50 and 100 µg/mL) in hHBSS. Viability was determined after washing the cells with fresh hHBSS followed by the apical addition of 1.5 mL freshly made MTS (240 µg/mL) and PMS solution (2.4 µg/mL) in hHBSS before incubation in dark conditions for 1.5 h with 75 rpm orbital shaking at 37 °C. The absorbance at 492 nm of three 100 µL samples from each well was measured in a 96-well plate using a Multiskan MS 352 Microplate Reader (Labsystems, Helsinki, Finland). […]

[6] = target: α-chymotrypsin from bovine pancreas (Bos taurus, UniProt P00766); conditions: insulin 600 µg/mL, FaSSIF, 37 °C, RP-HPLC
Description: The compatibility of integrating proteolysis in the in vitro permeation setup was then tested by measuring TEER and viability as the metabolic activity of Caco-2 cell monolayers after 2 h of apical exposure to different concentrations of α-chymotrypsin (0, 10, 50 and 100 µg/mL) in hHBSS. Viability was determined after washing the cells with fresh hHBSS followed by the apical addition of 1.5 mL freshly made MTS (240 µg/mL) and PMS solution (2.4 µg/mL) in hHBSS before incubation in dark conditions for 1.5 h with 75 rpm orbital shaking at 37 °C. The absorbance at 492 nm of three 100 µL samples from each well was measured in a 96-well plate using a Multiskan MS 352 Microplate Reader (Labsystems, Helsinki, Finland).

[7] = oral dosage form of insulin using C10, high doses required; cited from earlier work

semaglutide
oral bioavailability [1]: 0.1–1.2%

CCCCCCCCCCCCOS(=O)(=O)[O-].[Na+] [SDS, sodium dodecyl sulfate]
insulin permeation across porcine intestinal tissue [2]: significantly higher insulin permeation | barrier integrity after exposure ([3]; 2 h exposure to 0.40 mM SDS): irreversible deterioration of barrier integrity | SDS concentration resulting in immediate loss of epithelial integrity ([3]; concentrations as low as): 0.40 mM | potency as PE based on the insulin permeation rates [4]: significantly more potent PE when compared to C10 and C12-carnitine

insulin (human recombinant)
insulin digested on the apical side after 2 h [5]: Almost all | native insulin remaining ([6]; after 45–60 min, without STI, α-chymotrypsin 0.49 U/mL): approximately 20% | native insulin degraded after 2 h ([6]; α-chymotrypsin 10 µg/mL (0.49 U/mL), 12 µg/mL STI, n = 3): more than 90% | glycemic control [7]: glycemic control similar to subcutaneously administered insulin

CCCCCCCCCC(=O)[O-].[Na+] [C10, n-Capric acid sodium salt]
concentration inducing in vitro permeation ([3]; in the order): ~10 mM | potency as PE based on the insulin permeation rates [4]: equal in vitro potency to C12-carnitine
